US11912693B2, “Compounds for modulating S1P1 activity and methods of using the same” (TREVENA, INC., priority 2017, dated 2024)

Assays:
[1] = biological target: T1, human sphingosine-1-phosphate receptor 1 (S1P1) (Homo sapiens (Human), UniProt P21453); assay: β-Arrestin2 recruitment assay (PathHunter), S1P1 CHO-K1 cells; type: cell-based; conditions: for hS1P1 B-arrestin2 pEC50: β-arrestin2 recruitment, S1P1 CHO-K1 cells; for Emax: CHO-K1, efficacy (SPAN) normalized to fingolimod, read-out: hS1P1 B-arrestin2 SPAN
Experimental: (§1) Stable clonal Chinese hamster ovary K1 (CHO-K1) cells co-expressing EA-β-arrestin2 and the human sphingosine-1-phosphate receptor 1 (NM_001400, S1P1) with a C-terminal Prolink™ tag were purchased from DiscoverX corporation (Cat #: 93-0207C2).
(§2) Cell lines were cultured in AssayComplete™ Media 6 (DiscoverX Corporation, Cat #: 920018GF2) at 37° C. and 5% CO2 in a humidified CO2 and temperature-controlled incubator. To begin assay plating, cells were washed with dulbecco's phosphate buffered saline (CellGro, Cat #: 21-031-CV) and lifted from the culturing flask by incubation (37° C., 5 min) with CellStripper (Cellgro, Cat #: 25-056-CI). […] Plated cells were incubated overnight at 37° C. and 5% CO2 in a humidified CO2 and temperature-controlled incubator. Detecting Inhibition of cAMP Production
Agonist-promoted β-arrestin2 recruitment to the sphingosine-1-phosphate 1 receptor was determined using the β-arrestin PathHunter®) Detection kit (DiscoverX Corporation, Cat #: 93-0001). […] In cells that stably express these fusion proteins, stimulation with a cognate agonist results in the interaction of […] and the Prolink™-tagged GPCR. This allows the complementation of the two β-galactosidase fragments and results in the formation of a functional enzyme with β-galactosidase activity. […] Following a 60 minute incubation at 37° C. and 5% CO2 in a humidified CO2 and temperature-controlled incubator, the components of the β-arrestin PathHunter® Detection kit were added as per the manufacturer's instructions. After an hour incubation at room temperature, plates were analyzed by a BMG PheraStar microplate reader.
(§3) The tables below include the efficacy of the compound as compared to a positive control, referred to as “SPAN”. These values are normalized to fingolimod, a known agonist of the sphingosine-1-phosphate 1 receptor. The tables also include potency values (pEC50) for modulating discrete receptor-mediated activities (inhibition of cAMP production and […] recruitment).
Target sequence in this assay (P21453 whole entry, looked up): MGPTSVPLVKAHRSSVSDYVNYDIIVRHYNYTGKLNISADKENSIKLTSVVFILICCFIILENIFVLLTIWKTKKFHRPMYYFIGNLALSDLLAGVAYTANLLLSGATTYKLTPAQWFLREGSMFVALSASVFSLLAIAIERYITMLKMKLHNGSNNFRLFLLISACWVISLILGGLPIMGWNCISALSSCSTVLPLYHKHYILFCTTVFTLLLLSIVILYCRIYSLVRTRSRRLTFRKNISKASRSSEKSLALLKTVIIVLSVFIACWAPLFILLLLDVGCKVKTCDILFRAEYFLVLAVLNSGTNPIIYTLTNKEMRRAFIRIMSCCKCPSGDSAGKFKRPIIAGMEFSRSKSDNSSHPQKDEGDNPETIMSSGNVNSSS
Target sequence in this assay (P32121 whole entry partner, looked up): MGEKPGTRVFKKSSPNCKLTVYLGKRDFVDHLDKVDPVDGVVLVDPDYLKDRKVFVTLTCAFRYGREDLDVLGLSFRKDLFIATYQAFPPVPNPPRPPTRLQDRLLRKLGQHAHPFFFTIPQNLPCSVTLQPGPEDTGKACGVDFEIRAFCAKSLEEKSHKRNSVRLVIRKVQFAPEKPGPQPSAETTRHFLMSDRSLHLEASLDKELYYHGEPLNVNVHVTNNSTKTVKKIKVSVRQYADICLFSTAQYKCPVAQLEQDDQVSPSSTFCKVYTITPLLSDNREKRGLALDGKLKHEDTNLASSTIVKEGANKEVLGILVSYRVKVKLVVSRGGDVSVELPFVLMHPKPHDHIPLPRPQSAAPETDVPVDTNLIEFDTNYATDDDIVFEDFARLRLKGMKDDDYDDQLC

[2] = biological target: T1, human sphingosine-1-phosphate receptor 1 (S1P1); assay: Inhibition of cAMP production (HTRF cAMP HiRange), S1P1 CHO-K1 cells; type: cell-based; conditions: for hS1P1 cAMP pEC50: inhibition of cAMP production, S1P1 CHO-K1 cells; for Emax: CHO-K1, efficacy (SPAN) normalized to fingolimod, read-out: hS1P1 cAMP SPAN
Experimental: as §1, §2
Target sequence in this assay (P21453 whole entry, looked up): as the sequence (P21453 whole entry, looked up) above
Agonist-promoted G-protein responses were determined by measuring changes in intracellular cAMP using the HTRF® cAMP HiRange kit (CisBio, Cat #: 62AM6PEJ) based on time-resolved fluorescence resonance energy transfer (TR-FRET) technology. […] Following a 30-minute incubation at 37° C. and 5% CO2 in a humidified CO2 and temperature-controlled incubator, the components of the cAMP HiRange kit were added as per the manufacturer's instructions. After an hour incubation at room temperature, plates were analyzed by a BMG PheraStar microplate reader.
as §3

SMILES	hS1P1 B-arrestin2 pEC50 [1]	hS1P1 cAMP pEC50 [2]	Emax [1] [%]	Emax [2] [%]
CCC1(CC)CC(=O)c2cc(-c3nc(-c4ccc(S(=O)(=O)N(C)C)cc4)no3)ccc2O1 [Compound 30, 4-(5-(2,2-diethyl-4-oxochroman-6-yl)-1,2,4-oxadiazol-3-yl)-N,N-dimethylbenzenesulfonamide]	<5	<6.5	–	–
CCC1(CC)CC(=O)c2cc(-c3nc(-c4ccncc4C)no3)ccc2O1 [Compound 31, 2,2-diethyl-6-(3-(3-methylpyridin-4-yl)-1,2,4-oxadiazol-5-yl)chroman-4-one]	>5	>6.5	> 75	> 75
CCC1(CC)CC(=O)c2cc(-c3nc(-c4ccc(C)s4)no3)ccc2O1 [Compound 34, 2,2-diethyl-6-(3-(5-methylthiophen-2-yl)-1,2,4-oxadiazol-5-yl)chroman-4-one]	>5	<6.5	–	–
COc1ccccc1-c1nnc(-c2ccc3c(c2)nnn3C(C)C)o1 [Compound 35, 5-[5-(2-methoxyphenyl)-1,3,4-oxadiazol-2-yl]-1-(propan-2-yl)-1H-1,2,3-benzotriazole]	<5	<6.5	–	–
O=C1CC2(CCC(F)(F)CC2)Oc2ccc(-c3nc(-c4cccnc4)no3)cc21 [Compound 36, 4′,4′-difluoro-6-[3-(pyridin-3-yl)-1,2,4-oxadiazol-5-yl]-3,4-dihydrospiro[1-benzopyran-2,1′-cyclohexane]-4-one]	<5	<6.5	< 75	< 75
CC(C)n1nnc2cc(-c3ncc(-c4ccc(F)cc4)s3)ccc21 [Compound 37, 5-(4-fluorophenyl)-2-(1-isopropylbenzotriazol-5-yl)thiazole]	<5	<6.5	–	–
CCC1(CC)CC(=O)c2cc(-c3nc(-c4ccnc(OC)c4)no3)ccc2O1 [Compound 38, 2,2-diethyl-6-(3-(2-methoxypyridin-4-yl)-1,2,4-oxadiazol-5-yl)chroman-4-one]	<5	<6.5	> 75	< 75
C=CCn1nc2ccc(-c3nc(-c4ccccc4)no3)cc2n1 [Compound 39, 5-(3-phenyl-1,2,4-oxadiazol-5-yl)-2-(prop-2-en-1-yl)-2H-1,2,3-benzotriazole]	<5	<6.5	–	–
Brc1ccccc1-c1nc(-c2ccc3c(c2)nnn3C2CCCC2)no1 [Compound 40, 5-(2-bromophenyl)-3-(1-cyclopentyl-1H-benzo[d][1,2,3]triazol-5-yl)-1,2,4-oxadiazole]	>5	>6.5	–	–
O=C1CC2(CCCCC2)Oc2ccc(-c3nc(-c4cccnc4)no3)cc21 [Compound 41, 6-[3-(pyridin-3-yl)-1,2,4-oxadiazol-5-yl]-3,4-dihydrospiro[1-benzopyran-2,1′-cyclohexane]-4-one]	<5	<6.5	< 75	< 75
C=CCn1nnc2cc(-c3noc(-c4ccccc4Br)n3)ccc21 [Compound 42, 3-(1-allyl-1H-benzo[d][1,2,3]triazol-5-yl)-5-(2-bromophenyl)-1,2,4-oxadiazole]	<5	<6.5	–	–
CC(C)n1nnc2cc(-c3noc(-c4ccccc4Br)n3)ccc21 [Compound 43, 5-(2-bromophenyl)-3-(1-isopropyl-1H-benzo[d][1,2,3]triazol-5-yl)-1,2,4-oxadiazole]	>5	>6.5	–	–
Cc1nccnc1-c1nc(-c2ccc3c(c2)nnn3C(C)C)no1 [Compound 44, 3-(1-isopropyl-1H-benzo[d][1,2,3]triazol-5-yl)-5-(3-methylpyrazin-2-yl)-1,2,4-oxadiazole]	<5	<6.5	–	–
